Broadly, the IC50 is the point on the concentration scale where inhibition reaches its midpoint.

The structures appear in SMILES notation.

Experimental findings from patent US9650379B2 (CHONG KUN DANG PHARMACEUTICAL CORP., priority 2013, dated 2017) are described below.

Assay [1] concerns the target T1, HDAC6 human recombinant (Homo sapiens, UniProt Q9UBN7).
T1 construct: purchased Calbiochem 382180
T1 sequence (Q9UBN7 1-1215): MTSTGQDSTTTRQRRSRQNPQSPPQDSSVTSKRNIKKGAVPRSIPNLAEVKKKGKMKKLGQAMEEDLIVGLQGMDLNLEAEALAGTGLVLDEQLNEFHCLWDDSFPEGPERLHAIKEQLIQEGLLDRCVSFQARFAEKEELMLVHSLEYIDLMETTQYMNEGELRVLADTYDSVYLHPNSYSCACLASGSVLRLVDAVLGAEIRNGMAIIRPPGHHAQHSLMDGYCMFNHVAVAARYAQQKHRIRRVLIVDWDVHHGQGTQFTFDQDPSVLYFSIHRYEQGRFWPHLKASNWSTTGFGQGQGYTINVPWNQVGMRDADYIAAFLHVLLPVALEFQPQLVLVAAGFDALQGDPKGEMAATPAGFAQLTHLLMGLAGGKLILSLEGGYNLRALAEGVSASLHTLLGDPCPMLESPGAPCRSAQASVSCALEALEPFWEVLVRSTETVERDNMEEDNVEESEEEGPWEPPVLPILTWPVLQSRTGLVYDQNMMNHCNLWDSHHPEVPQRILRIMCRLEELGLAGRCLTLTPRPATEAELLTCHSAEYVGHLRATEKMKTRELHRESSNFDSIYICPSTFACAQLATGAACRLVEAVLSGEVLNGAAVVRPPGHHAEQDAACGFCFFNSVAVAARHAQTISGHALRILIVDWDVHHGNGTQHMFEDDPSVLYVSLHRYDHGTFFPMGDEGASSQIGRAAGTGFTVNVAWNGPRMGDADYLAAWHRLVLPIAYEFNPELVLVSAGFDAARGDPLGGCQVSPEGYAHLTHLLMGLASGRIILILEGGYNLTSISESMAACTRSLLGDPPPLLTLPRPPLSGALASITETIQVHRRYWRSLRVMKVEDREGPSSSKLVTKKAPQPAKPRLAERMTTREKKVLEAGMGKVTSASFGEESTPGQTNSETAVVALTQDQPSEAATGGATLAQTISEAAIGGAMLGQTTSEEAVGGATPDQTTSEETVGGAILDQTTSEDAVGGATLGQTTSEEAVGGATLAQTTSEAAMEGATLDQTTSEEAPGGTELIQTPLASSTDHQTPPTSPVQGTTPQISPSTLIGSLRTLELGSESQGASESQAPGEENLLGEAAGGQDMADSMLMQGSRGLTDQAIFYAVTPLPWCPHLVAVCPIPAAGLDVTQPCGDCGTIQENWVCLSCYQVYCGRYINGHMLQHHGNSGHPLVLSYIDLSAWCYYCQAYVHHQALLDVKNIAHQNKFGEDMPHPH
In words: Inhibition of HDAC6 activity (fluorimetric assay). The format is biochemical. The following applies: test concentrations 0.1, 1, 10, 100 and 1000 nM; 37° C., 60 minutes. The procedure, abridged: (§1)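 HDAC1 tested with the kit assay mixture at 100, 1000 and 10000 nM compound; recombinant human HDAC6 at 0.1, 1, 10, 100 and 1000 nM. Reaction ran 60 min at 37° C, then developer was added for 30 min at 37° C and fluorescence quantified.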

The target in assay [2] is T2, HDAC1 (Homo sapiens, UniProt Q13547).
T2 construct: purchased Enzolifesciences BML-AK511
In words: Inhibition of HDAC1 activity (HDAC1 fluorimetric drug discovery assay kit). The format is biochemical. The following applies: test concentrations 100, 1000 and 10000 nM; 37° C., 60 minutes. Put shortly: as §1

T2 sequence (Q13547 whole entry): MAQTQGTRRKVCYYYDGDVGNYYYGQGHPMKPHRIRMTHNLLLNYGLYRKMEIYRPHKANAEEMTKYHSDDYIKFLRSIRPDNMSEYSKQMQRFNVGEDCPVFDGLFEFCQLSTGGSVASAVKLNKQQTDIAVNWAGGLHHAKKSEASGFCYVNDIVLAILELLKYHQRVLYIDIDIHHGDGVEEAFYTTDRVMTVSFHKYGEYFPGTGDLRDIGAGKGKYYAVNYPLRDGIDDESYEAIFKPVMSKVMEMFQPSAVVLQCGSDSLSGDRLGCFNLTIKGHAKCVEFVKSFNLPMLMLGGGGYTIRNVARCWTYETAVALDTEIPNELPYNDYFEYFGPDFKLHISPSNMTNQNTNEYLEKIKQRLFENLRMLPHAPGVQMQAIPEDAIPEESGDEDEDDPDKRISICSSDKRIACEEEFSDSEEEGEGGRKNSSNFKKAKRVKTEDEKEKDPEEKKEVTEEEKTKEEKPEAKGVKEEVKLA

Turning to `CC(C)(O)CN1C2CCC1CN(c1ccnc3c1ccn3Cc1ccc(C(=O)NO)cc1)C2` [Compound 1017, N-hydroxy-4-((4-(8-(2-hydroxy-2-methylpropyl)-3,8-diazabicyclo[3.2.1]octan-3-yl)-1H-pyrrolo[2,3-b]pyridin-1-yl)methyl)benzamide], the IC50 was found to be 6 nM in assay [1] and 220 nM in assay [2].
The like results for `O=C(NO)c1ccc(Cn2ccc3cc(N4CCOCC4)cnc32)cc1` [Compound 787, N-hydroxy-4-((5-morpholino-1H-pyrrolo[2,3-b]pyridin-1-yl)methyl)benzamide] were, in that order, 24.9 nM and 2780 nM.
The like results for `CC(C)(O)CN1CCC(c2ccc3ccn(Cc4ccc(C(=O)NO)cc4)c3n2)CC1` [Compound 991, N-hydroxy-4-((6-(1-(2-hydroxy-2-methylpropyl)piperidin-4-yl)-1H-pyrrolo[2,3-b]pyridin-1-yl)methyl)benzamide] were, in that order, 32 nM and 880 nM.
On the same counts, the results for `CCC(F)(CC)CN1CCN(c2ccnc3c2ccn3Cc2ccc(C(=O)NO)cc2)CC1` [Compound 764, 4-((4-(4-(2-ethyl-2-fluorobutyl)piperazin-1-yl)-1H-pyrrolo[2,3-b]pyridin-1-yl)methyl)-N-hydroxybenzamide] are 91 nM and 3220 nM.
In the case of `COc1cccc(CN2CCC(c3ccnc4c3ccn4Cc3ccc(C(=O)NO)cc3)CC2)c1` [Compound 859, N-hydroxy-4-((4-(1-(3-methoxybenzyl)piperidin-4-yl)-1H-pyrrolo[2,3-b]pyridin-1-yl)methyl)benzamide], the IC50 in assay [1] amounted to 6 nM; in assay [2], 330 nM.
The like results for `CN1CCN(c2ccnc3c2ccn3Cc2ccc(C(=O)NO)cc2)CC1` [Compound 224, N-hydroxy-4-((4-(4-methylpiperazin-1-yl)-1H-pyrrolo[2,3-b]pyridin-1-yl)methyl)benzamide] were, in that order, 2 nM and 180 nM.
`O=C(NO)c1ccc(Cn2ccc3cc(C4CCN(Cc5ccccc5F)CC4)cnc32)cc1` [Compound 839, 4-((5-(1-(2-fluorobenzyl)piperidin-4-yl)-1H-pyrrolo[2,3-b]pyridin-1-yl)methyl)-N-hydroxybenzamide]: the IC50 in assay [1] was 17.5 nM; in assay [2], 1910 nM.
As to `C[C@@H]1CN(c2cnc3c(ccn3Cc3ccc(C(=O)NO)cc3)c2)C[C@H](C)N1CC(C)(C)F` [Compound 866, 4-((5-((3S,5R)-4-(2-fluoro-2-methylpropyl)-3,5-dimethylpiperazin-1-yl)-1H-pyrrolo[2,3-b]pyridin-1-yl)methyl)-N-hydroxybenzamide], the IC50 in assay [1] was found to be 12 nM; in assay [2], 1630 nM.
The like results for `O=C(NO)c1ccc(Cn2ccc3c(C4CCN(Cc5ccc(CN6CCOCC6)cc5)CC4)ccnc32)cc1` [Compound 987, N-hydroxy-4-((4-(1-(4-(morpholinomethyl)benzyl)piperidin-4-yl)-1H-pyrrolo[2,3-b]pyridin-1-yl)methyl)benzamide] were, in that order, 5.7 nM and 320 nM.
For the compound `CC1(C)CC=C(c2cnc3c(ccn3Cc3ccc(C(=O)NO)cc3)c2)CC1` [Compound 649], the values for the IC50 in assay [1] and in assay [2] were 93 nM and 7050 nM, respectively.
The like results for `O=C(NO)c1ccc(Cn2ccc3cc(C4CCN(C(=O)c5cccc(F)c5)CC4)cnc32)cc1` [Compound 831, 4-((5-(1-(3-fluorobenzoyl)piperidin-4-yl)-1H-pyrrolo[2,3-b]pyridin-1-yl)methyl)-N-hydroxybenzamide] were, in that order, 7 nM and 1220 nM.
The like results for `O=C(NO)c1ccc(Cn2ccc3c(N4CCN(C(=O)C5(C(F)(F)F)CCC5)CC4)ccnc32)cc1` [Compound 703, N-hydroxy-4-((4-(4-(1-(trifluoromethyl)cyclobutanecarbonyl)piperazin-1-yl)-1H-pyrrolo[2,3-b]pyridin-1-yl)methyl)benzamide] were, in that order, 6 nM and 720 nM.
